Literature values, collected in patent US10603302B2, “Water soluble flavonoids” (priority 2017, dated 2020).

Conditions: background statement

SMILES: O=C1c2c(O)cc(O)cc2OC(c2ccc(O)c(O)c2)C1O (stereo not shown) [Taxifolin, 5,7,31,41-tetrahydroxyflavanol,dihydroquercetin]
- solubility in water: slightly soluble in water
